Where two headings read alike, the source gives them in different places.

A short description of one series: Solubility in water. It counts as physicochemical. To be noted: in 100 ml of water; read-out: Solubility (100 ml of water dissolves).
In series [1] the test system is Rat. Put plainly: Neural compatibility, rat, pericerebral ED50. It counts as in vivo. The source says: (§1) In Table I, the following compounds are compared with respect to neural and general compatibility: […]
The subject of series [2] is Rat. Nature of the series: Neural compatibility, rat, intracisternal ED50. The class given is in vivo.
Description: as §1

For a further series, the system named is Mouse. Put plainly: General compatibility, mouse LD50. To be noted: for Mouse LD50: General compatibility. The class given is in vivo.
Description: as §1

Another series in a line: Iodine content. The class given is physicochemical.
Series [3] is described as follows: Number of hydroxy groups per molecule. The class given is physicochemical.
Series [4] can be described thus: Viscosity at 37° C., 300 mg I/ml. It counts as physicochemical.
The conditions of series [5]: clinical experience; cited from earlier work.
Series [6] has as its system Rat. Nature of the series: Neural compatibility, comparison in words. To be noted: data of Table I. It counts as in vivo.
Description: as §1

Regarding `CC(=O)N(CCO)c1c(I)c(C(=O)NC(CO)(CO)CO)c(I)c(C(=O)NC(CO)(CO)CO)c1I` [Example 3, 5-[N-(2-Hydroxyethyl)acetylamino]-2,4,6-triiodo-isophthalic Acid Bis(1,1,1-trishydroxymethylmethyl)diamide], the solubility in the series “Solubility in water” was > 700 mg/mL.

In the case of `C[C@H](O)C(=O)Nc1c(I)c(C(=O)NC(CO)CO)c(I)c(C(=O)NC(CO)CO)c1I` [C, Iopamidol], the “Rat, pericerebral ED50” value in the series with Rat [1] is 154 mg I/kg. The “Rat, intracisternal ED50” value with Rat [2] turned out to be 116 mg I/kg. In addition, the “Mouse LD50” value in the series with Mouse amounted to 15 g I/kg. Besides, the Iodine content in “Iodine content” is 49%. Moreover, the “Number of hydroxy groups/molecule” value in series [3] worked out at 5. Further, in series [4], the Viscosity is 4.5 mPa · s. Further, in series [5], the “side effects (in words)” value was “still are not devoid of side effects”.

With `CC(=O)N(CCO)c1c(I)c(C(=O)NCC(O)C(O)CO)c(I)c(C(=O)NCC(O)C(O)CO)c1I` (centres unmarked) [Example 4, 5-[N-(2-Hydroxyethyl)acetylamino]-2,4,6-triiodo-isophthalic Acid Bis(2,3,4-trihydroxybut-1-yl)-diamide], the solubility in “Solubility in water” was > 700 mg/mL.

On to `CC(=O)N(CCO)c1c(I)c(C(=O)NC(CO)C(O)CO)c(I)c(C(=O)NC(CO)C(O)CO)c1I` (stereo not drawn) [Example 1, 5-[N-(2-Hydroxyethyl)acetylamino]-2,4,6-triiodoisophthalic acid bis(threo-1,3,4-trihydroxybut-2-yl)diamide], for which the “Rat, pericerebral ED50” value with Rat [1] (listed as A1) is 171 mg I/kg. For the same molecule, the “Rat, intracisternal ED50” value in the series on Rat [2] amounted to 130 mg I/kg. Further, the “Mouse LD50” value in the series on Mouse (listed as A1) was 17 g I/kg. For the same molecule, the “general compatibility (in words)” value in the series on Mouse (data of Table I) is “superior to the comparison compounds”. The molecule also returned an Iodine content in “Iodine content” of 45%. Further, in series [3], the “Number of hydroxy groups/molecule” value came out at 7. In addition, in [4] (listed as A1), the Viscosity is listed as 5.8 mPa · s. Further, in the series with Rat [6], the “neural compatibility (in words)” value is listed as “superior to the comparison compounds”.

With `CC(=O)N(CC(O)CO)c1c(I)c(C(=O)NCC(O)CO)c(I)c(C(=O)NCC(O)CO)c1I` (centres unmarked) [D, Iohexol], in the series on Rat [1], the “Rat, pericerebral ED50” value stood at 83 mg I/kg. Further, in the series with Rat [2], the “Rat, intracisternal ED50” value came to 67 mg I/kg. Besides, the “Mouse LD50” value in the series on Mouse came to 15 g I/kg. In the series “Iodine content”, the Iodine content is on record as 46%. The “Number of hydroxy groups/molecule” value in series [3] is listed as 6. Further, in series [4], the Viscosity was found to be 5.5 mPa · s. For the same molecule, the “side effects (in words)” value in series [5] is recorded as “still are not devoid of side effects”.

For the molecule `CC(=O)N(CCO)c1c(I)c(C(=O)NC(CO)C(O)CO)c(I)c(C(=O)NC(CO)C(O)CO)c1I` (stereo not drawn) [Example 2, 5-[N-(2-Hydroxyethyl)acetylamino]-2,4,6-triiodoisophthalic acid bis(erythro-1,3,4-trihydroxybut-2-yl)diamide], the “Rat, pericerebral ED50” value in the series with Rat [1] (listed as A2) is 188 mg I/kg. Besides, the “Mouse LD50” value in the series with Mouse (listed as A2) is recorded as 22 g I/kg. In addition, the Viscosity in series [4] (listed as A2) is recorded as 6.2 mPa · s. Further, the solubility in “Solubility in water” was > 700 mg/mL.

For the molecule `CC(=O)Nc1c(I)c(C(=O)N[C@H]2C(O)O[C@H](CO)[C@@H](O)[C@@H]2O)c(I)c(N(C)C(C)=O)c1I` (some centres unmarked) [B, Metrizamide], the “Rat, pericerebral ED50” value with Rat [1] is 62 mg I/kg. Also, the “Rat, intracisternal ED50” value with Rat [2] is on record as 48 mg I/kg. Besides, the “Mouse LD50” value in the series with Mouse came to 14 g I/kg. The same molecule had an Iodine content in “Iodine content” of 48%. For the same molecule, the “Number of hydroxy groups/molecule” value in [3] turned out to be 4. The molecule further returned a Viscosity in series [4] of 6.2 mPa · s. For the same molecule, the “side effects (in words)” value in [5] is recorded as “still are not devoid of side effects”.

These data come from patent publication US4547357A, “N-Hydroxyethylated 2,4,6-triiodoaminoisophthalic acid bistrihydroxybutylamides, their preparation and x-ray contrast media containing them” (priority 1981, dated 1985).
